Patent US5431924A, “Anti-inflammatory composition derived from emu oil” (priority 1990, dated 1995)

Tested on: male polyarthritic hooded rats
Experiment: Polyarthritis in male hooded rats: emu oil before and after uv exposure or benzoyl peroxide oxidation, with and without additives (Table 8)
Conditions: for anti-inflammatory activity in the rat polyarthritic model: emu oil after exposure to strong ultraviolet light, with or without additive, in words
[1] = Table 8, dose/kg 2 ml (EO), 20 mg (R.A., B-Carotene), 25 mg (Trolox-DE)

| Structure (SMILES) | Mean changes, Thickness Rear Paws, Days 12-16 [1] | Mean changes, Thickness Rear Paws, Days 16-20 [1] | Mean changes, Thickness Tail, Days 12-16 [1] | Mean changes, Thickness Tail, Days 16-20 [1] | Mean changes, Wt Chge, Days 12-16 [1] | Mean changes, Wt Chge, Days 16-20 [1] | anti-inflammatory activity in the rat polyarthritic model |
| --- | --- | --- | --- | --- | --- | --- | --- |
| CC(=O)OC/C=C(C)/C=C/C=C(C)/C=C/C1=C(C)CCCC1(C)C [R.A. in E-Pg, Retinyl acetate] | 0.16 mm | 0.30 mm | -0.12 mm | -0.10 mm | -02 g | +10 g | anti-inflammatory activity could be restored to the oil |
| CC1=C(/C=C/C(C)=C/C=C/C(C)=C/C=C/C=C(C)/C=C/C=C(C)/C=C/C2=C(C)CCCC2(C)C)C(C)(C)CCC1 [β-carotene] | – | – | – | – | – | – | anti-inflammatory activity could be restored to the oil by the addition of retinyl acetate but not β-carotene |
